Experimental data as given in patent publication US20260226060A1, “SALTS AND CRYSTALLINE FORMS OF COMPOUND A, METHODS OF PREPARATION, AND USES THEREOF” (SHENZHEN NEWDEL BIOTECH CO., LTD., priority 2023, published 2026).
Read-outs that look alike come from different tables or passages of the source.

Columns and labels:
[1] = Polymorph screening: antisolvent precipitation; type: physicochemical; conditions: for Results Wet sample: Vsolvent/Vanti-solvent 1/10
Experimental: An anti-solvent was gradually added thereto until a solid precipitated or a solvent volume of was added.

physchem = conditions: water, thermodynamic from solid
[2] = Polymorph screening: cooling crystallization; type: physicochemical; conditions: for solid obtained by cooling crystallization: solution in methanol
Experimental: It was filtered through a microfilm into clear vials. The solution was divided into two equal parts, one part of filtrate was placed in a refrigerator (5° C.) for rapid cooling, and the other part of filtrate was placed in a heating metal module with a power off and naturally cooled to room temperature.

[3] = Mechanical grinding stability (XRPD); type: physicochemical; conditions: ground in a mortar 5 minutes, samples at 2 and 5 minutes
[4] = Polymorph screening: trituration for 3 or 7 days at room temperature or 50° C.; type: physicochemical
[5] = Tableting stability (40 Mpa, 1 min; XRPD); type: physicochemical
[6] = Solubility analysis in biological solvents (SGF, FaSSIF, FeSSIF) and water, with pH and XRPD of residual solid; type: physicochemical; conditions: for Solubility: 37° C., target 5 mg/mL
Experimental: (§1) HPLC analysis was performed by using an Agilent HPLC 1260 series instrument and the HPLC methods used for solubility and stability determinations were shown in Tables 33 and 34, respectively.

[7] = Dynamic vapor sorption (DVS) hygroscopicity; type: physicochemical
Experimental: The water vapor sorption/desorption data of the samples were collected on a dynamic vapor sorption instrument (proUmid GmbH & Co. KG, Germany). Approximately 50-70 mg of sample was placed in a sample pan previously tared and the weight of the sample was measured accurately.

[8] = Short-term physical stability of anhydrous crystal forms (40° C./75% RH, open, 1 day; XRPD); type: physicochemical
From the text: In addition to the mesylate crystalline form I, the other anhydrous crystalline forms were stable under high humidity conditions.

[9] = Polymorph screening: evaporating crystallization; type: physicochemical; conditions: for Results (quick volatilization −1 h) Wet sample: saturated solution (50° C. to room temperature)
[10] = Solid state stability at 60° C. (closed) and 40° C./75% RH (open), XRPD and HPLC purity; type: physicochemical
Experimental: (closed) and 40° C./75 RH (open) for 14 days, XRPD analysis and purity analysis were performed at various points of time, and solid-state stability was evaluated.
as §1

[11] = 60° C./closed and 40° C./75% RH, 7 days

## Cc1c(C#Cc2cnc3ccc(N4CCC(O)CC4)nn23)cccc1C(=O)Nc1cc(Cl)cc(C(F)(F)F)c1 [Fumarate crystalline form I]
[1]; from MeOH, THF or DMSO
  new crystalline form by antisolvent precipitation (XRPD): no new crystalline form was obtained
[1]; solvent DMSO (100 mg/mL, 0.2 mL), anti-solvent EA, batch 073-C1
  Results Wet sample: clear solution
[1]; solvent DMSO (100 mg/mL, 0.2 mL), anti-solvent IPAC, batch 073-C2
  Results Wet sample: clear solution
[1]; solvent DMSO (100 mg/mL, 0.2 mL), anti-solvent MTBE, batch 073-C4
  Results Wet sample: clear solution
[1]; solvent MeOH (Saturated, 0.3 mL), anti-solvent MTBE, batch 073-A2
  Results Wet sample: clear solution
[1]; solvent THF (25 mg/mL, 0.4 mL), anti-solvent EA, batch 073-B1
  Results Wet sample: clear solution
physchem; Solubility
  Solubility: < 600 µg/mL
physchem; solubility
  Solubility: < 5000 µg/mL
[2]
  new crystalline form by cooling crystallization (XRPD): no new crystalline form was obtained
[2]; rapid cooling (5° C.)
  solid obtained by cooling crystallization: dissociated into free base form 1
[2]; slow cooling to room temperature
  solid obtained by cooling crystallization: into free base form 2
[3]
  crystal form after grinding (XRPD): not changed
  crystallinity after grinding (XRPD): not obviously reduced
[4]; 30 mg/mL suspension, room temperature or 50° C., 3 or 7 days
  new crystalline form by trituration (XRPD): no new fumarate crystalline form was formed
[4]; in alcohol, water, 2-Me-THF, MTBE and acetone
  dissociation on trituration: dissociated into free base crystalline form VII
[5]
  crystalline form after tableting (XRPD): unchanged
  crystallinity after tableting (XRPD): slightly reduced
[6]; FaSSIF (medium pH 6.5), 0.5 h
  pH in solubility analysis: 6.3
[6]; FaSSIF (medium pH 6.5), 2 h
  pH in solubility analysis: 6.2
[6]; FaSSIF (medium pH 6.5), 24 h
  pH in solubility analysis: 6.0
[6]; FaSSIF, 0.5 h
  XRPD of residual solid in solubility analysis: unchanged
  Solubility: 0.011 mg/mL
[6]; FaSSIF, 0.5 h, listed as fumarate crystalline form I
  Solubility: 0.011/0.011/ mg/mL
[6]; FaSSIF, 2 h
  Solubility: 0.011 mg/mL
[6]; FaSSIF, 2 h, listed as fumarate crystalline form I
  Solubility: 0.011/0.011/ mg/mL
[6]; FaSSIF, 24 h
  XRPD of residual solid in solubility analysis: unchanged
  Solubility: 0.022 mg/mL
[6]; FeSSIF (medium pH 5.0), 0.5 h
  pH in solubility analysis: 5.0
[6]; FeSSIF (medium pH 5.0), 2 h
  pH in solubility analysis: 5.0
[6]; FeSSIF (medium pH 5.0), 24 h
  pH in solubility analysis: 5.0
[6]; FeSSIF, 0.5 h
  Solubility: 0.197 mg/mL
[6]; FeSSIF, 0.5 h, listed as fumarate crystalline form I
  Solubility: 0.197 mg/mL
[6]; FeSSIF, 2 h
  Solubility: 0.175 mg/mL
[6]; FeSSIF, 2 h, listed as fumarate crystalline form I
  Solubility: 0.175 mg/mL
[6]; FeSSIF, 24 h
  XRPD of residual solid in solubility analysis: unchanged
  Solubility: 0.530 mg/mL
[6]; SGF (medium pH 1.2), 0.5 h
  pH in solubility analysis: 1.3
[6]; SGF (medium pH 1.2), 2 h
  pH in solubility analysis: 1.4
[6]; SGF (medium pH 1.2), 24 h
  pH in solubility analysis: 1.3
[6]; SGF, 0.5 h
  XRPD of residual solid in solubility analysis: unchanged
  Solubility: <LOD
[6]; SGF, 0.5 h, listed as fumarate crystalline form I
  Solubility: <LOD/<LOD/
[6]; SGF, 2 h
  Solubility: <LOD
[6]; SGF, 2 h, listed as fumarate crystalline form I
  Solubility: <LOD/<LOD/
[6]; SGF, 24 h
  XRPD of residual solid in solubility analysis: unchanged
  Solubility: <LOD
[6]; summary over water, SGF, FaSSIF, FeSSIF
  Solid form of residual solids in solubility analysis: remained unchanged
[6]; water (medium pH 6.6), 0.5 h
  pH in solubility analysis: 4.6
[6]; water (medium pH 6.6), 2 h
  pH in solubility analysis: 4.3
[6]; water (medium pH 6.6), 24 h
  pH in solubility analysis: 4.2
[6]; water, 0.5 h
  XRPD of residual solid in solubility analysis: unchanged
  Solubility: <LOD
[6]; water, 0.5 h, listed as fumarate crystalline form I
  Solubility: <LOD/<LOD/
[6]; water, 2 h
  Solubility: <LOD
[6]; water, 2 h, listed as fumarate crystalline form I
  Solubility: <LOD/<LOD/
[6]; water, 24 h
  XRPD of residual solid in solubility analysis: unchanged
  Solubility: <LOD
[7]
  crystalline form after DVS analysis (XRPD): remained unchanged
  hygroscopicity (DVS): substantially non-hygroscopic
[7]; 80% RH
  DVS The weight gains by vapor sorption %: 0.2, 0.2%
[7]; 90% RH
  DVS The weight gains by vapor sorption %: 0.2, 0.2%
[7]; 90% RH, listed as fumarate crystalline form I
  DVS The weight gains by vapor sorption %: 0.2/0.2%
[7]; listed as fumarate crystalline form I
  hygroscopicity (DVS): almost non-hygroscopic
[7]; listed as fumarate form crystalline I
  hygroscopicity (DVS): almost non-hygroscopic
[8]
  XPRD Results after short-term physical stability: unchanged
[9]; quick and slow evaporation
  new crystalline form by evaporating crystallization (XRPD): no new crystalline form was obtained
[9]; solvent EtOH, batch 071-A2
  Results (quick volatilization −1 h) Wet sample: amorphous
[9]; solvent MeOH, batch 071-A1
  Results (quick volatilization −1 h) Wet sample: free base form 1
[10]; 0 d
  Purity in stability evaluation: 99.14 Area %
[10]; 60° C./Closed and 40° C./75% RH (Open), 14 days
  Solid state stability-14 days: physically and chemically stable
[10]; [11]
  change in crystalline form, 7 days: No change in crystalline form was observed
  chemical purity, 7 days: remained unchanged
  solid stability, 7 days: physicochemically stable
[10]; 7 d-40° C./75% RH
  Purity in stability evaluation: 99.13 Area %
  XRPD in stability evaluation: unchanged
[10]; 7 d-60° C./capped
  Purity in stability evaluation: 99.14 Area %
  XRPD in stability evaluation: unchanged
[10]; 14 d-40° C./75% RH
  Purity in stability evaluation: 99.13 Area %
  XRPD in stability evaluation: unchanged
[10]; 14 d-60° C./capped
  Purity in stability evaluation: 99.13 Area %
  XRPD in stability evaluation: unchanged
